{"source": "PubChem BioAssay AID1963440", "about": "(Molecular Pharmacology Branch, DTP, NCI, 2024)", "test_system": "NCI-H1417 complex spheroids, growth % test/control", "test": "Anticancer human tumor NCI-H1417 cell line growth inhibition [Asc];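 for all read-outs here: spheroids exposed to compounds for 7 days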;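 for viability, T/C: 100% = DMSO vehicle control wells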", "conditions": "for pIC50: curve of first compound; for viability, T/C: stronger effect = lower value", "how_it_was_run": "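Complex spheroids combining tumor cells with HUVEC endothelial cells and human MSCs, at 37 degrees C, 5% CO2; agents tested alone or combined, half-log dilutions from at or near clinical Cmax, or 10 microM if Cmax unknown.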", "note": "pIC50: −log10 of the molar value.", "data": [{"smiles": "NC(=O)C(=Cn1cnc(-c2cc(C(F)(F)F)cc(C(F)(F)F)c2)n1)c1cncnc1", "note": "+ Cc1c(S(C)(=O)=O)c(-c2cc(F)cc(N3CCN(c4ccc(NS(=O)(=O)c5ccc(NC(CCN6CCC(C(=O)OCCCP(=O)(O)O)CC6)CSc6ccccc6)c(S(=O)(=O)C(F)(F)F)c5)cc4)CC3)c2)c(-c2ccc(Cl)cc2)n1C(C)C", "values": [{"measurement": "pIC50", "setting": "second compound 0.1 µM", "result": 7.95}, {"measurement": "pIC50", "setting": "second compound 0.316 µM", "result": "> 9.02"}, {"measurement": "pIC50", "setting": "second compound 1 µM", "result": "> 9.02"}, {"measurement": "pIC50", "setting": "second compound 3.16 µM", "result": "> 9.02"}, {"measurement": "pIC50", "setting": "second compound 10 µM", "result": "> 9.02"}, {"measurement": "viability, T/C", "setting": "second compound 0.1 µM, first compound 0.000949 µM", "result": 75.4, "unit": "%"}, {"measurement": "viability, T/C", "setting": "second compound 0.1 µM, first compound 0.003 µM", "result": 77.7, "unit": "%"}, {"measurement": "viability, T/C", "setting": "second compound 0.1 µM, first compound 0.00949 µM", "result": 51.9, "unit": "%"}, {"measurement": "viability, T/C", "setting": "second compound 0.1 µM, first compound 0.03 µM", "result": 24.1, "unit": "%"}, {"measurement": "viability, T/C", "setting": "second compound 0.1 µM, first compound 0.0949 µM", "result": 8.22, "unit": "%"}, {"measurement": "viability, T/C", "setting": "second compound 0.1 µM, first compound 0.3 µM", "result": 3.52, "unit": "%"}, {"measurement": "viability, T/C", "setting": "second compound 0.316 µM, first compound 0.000949 µM", "result": 38.6, "unit": "%"}, {"measurement": "viability, T/C", "setting": "second compound 0.316 µM, first compound 0.003 µM", "result": 29.7, "unit": "%"}, {"measurement": "viability, T/C", "setting": "second compound 0.316 µM, first compound 0.00949 µM", "result": 20.7, "unit": "%"}, {"measurement": "viability, T/C", "setting": "second compound 0.316 µM, first compound 0.03 µM", "result": 10.5, "unit": "%"}, {"measurement": "viability, T/C", "setting": "second compound 0.316 µM, first compound 0.0949 µM", "result": 3.84, "unit": "%"}, {"measurement": "viability, T/C", "setting": "second compound 0.316 µM, first compound 0.3 µM", "result": 1.35, "unit": "%"}, {"measurement": "viability, T/C", "setting": "second compound 1 µM, first compound 0.000949 µM", "result": 8.75, "unit": "%"}, {"measurement": "viability, T/C", "setting": "second compound 1 µM, first compound 0.003 µM", "result": 8.33, "unit": "%"}, {"measurement": "viability, T/C", "setting": "second compound 1 µM, first compound 0.00949 µM", "result": 5.84, "unit": "%"}, {"measurement": "viability, T/C", "setting": "second compound 1 µM, first compound 0.03 µM", "result": 3.45, "unit": "%"}, {"measurement": "viability, T/C", "setting": "second compound 1 µM, first compound 0.0949 µM", "result": 1.82, "unit": "%"}, {"measurement": "viability, T/C", "setting": "second compound 1 µM, first compound 0.3 µM", "result": 0.83, "unit": "%"}, {"measurement": "viability, T/C", "setting": "second compound 3.16 µM, first compound 0.000949 µM", "result": 2.8, "unit": "%"}, {"measurement": "viability, T/C", "setting": "second compound 3.16 µM, first compound 0.003 µM", "result": 2.41, "unit": "%"}, {"measurement": "viability, T/C", "setting": "second compound 3.16 µM, first compound 0.00949 µM", "result": 2.15, "unit": "%"}, {"measurement": "viability, T/C", "setting": "second compound 3.16 µM, first compound 0.03 µM", "result": 2.26, "unit": "%"}, {"measurement": "viability, T/C", "setting": "second compound 3.16 µM, first compound 0.0949 µM", "result": 1.59, "unit": "%"}, {"measurement": "viability, T/C", "setting": "second compound 3.16 µM, first compound 0.3 µM", "result": 0.92, "unit": "%"}, {"measurement": "viability, T/C", "setting": "second compound 10 µM, first compound 0.000949 µM", "result": 2.33, "unit": "%"}, {"measurement": "viability, T/C", "setting": "second compound 10 µM, first compound 0.003 µM", "result": 1.83, "unit": "%"}, {"measurement": "viability, T/C", "setting": "second compound 10 µM, first compound 0.00949 µM", "result": 2.16, "unit": "%"}, {"measurement": "viability, T/C", "setting": "second compound 10 µM, first compound 0.03 µM", "result": 2.37, "unit": "%"}, {"measurement": "viability, T/C", "setting": "second compound 10 µM, first compound 0.0949 µM", "result": 1.29, "unit": "%"}, {"measurement": "viability, T/C", "setting": "second compound 10 µM, first compound 0.3 µM", "result": 0.5, "unit": "%"}]}, {"smiles": "NC1CCC(NC2CC2c2ccccc2)CC1", "note": "(stereo not given) + CNC(C)C(=O)NC1CN(S(=O)(=O)c2cccc(S(=O)(=O)N3CCC4CCC(C(=O)NC(c5ccccc5)c5ccccc5)N4C(=O)C(NC(=O)C(C)NC)C3)c2)CCC2CCC(C(=O)NC(c3ccccc3)c3ccccc3)N2C1=O", "values": [{"measurement": "pIC50", "setting": "second compound 0.01 µM", "result": "< 7.00"}, {"measurement": "pIC50", "setting": "second compound 0.0316 µM", "result": "< 7.00"}, {"measurement": "pIC50", "setting": "second compound 0.1 µM", "result": "< 7.00"}, {"measurement": "pIC50", "setting": "second compound 0.316 µM", "result": "< 7.00"}, {"measurement": "pIC50", "setting": "second compound 1 µM", "result": "< 7.00"}, {"measurement": "viability, T/C", "setting": "second compound 0.01 µM, first compound 0.000316 µM", "result": 93.4, "unit": "%"}, {"measurement": "viability, T/C", "setting": "second compound 0.01 µM, first compound 0.001 µM", "result": 92.8, "unit": "%"}, {"measurement": "viability, T/C", "setting": "second compound 0.01 µM, first compound 0.00316 µM", "result": 88.7, "unit": "%"}, {"measurement": "viability, T/C", "setting": "second compound 0.01 µM, first compound 0.01 µM", "result": 89.4, "unit": "%"}, {"measurement": "viability, T/C", "setting": "second compound 0.01 µM, first compound 0.0316 µM", "result": 84.2, "unit": "%"}, {"measurement": "viability, T/C", "setting": "second compound 0.01 µM, first compound 0.1 µM", "result": 91, "unit": "%"}, {"measurement": "viability, T/C", "setting": "second compound 0.0316 µM, first compound 0.000316 µM", "result": 106, "unit": "%"}, {"measurement": "viability, T/C", "setting": "second compound 0.0316 µM, first compound 0.001 µM", "result": 80.6, "unit": "%"}, {"measurement": "viability, T/C", "setting": "second compound 0.0316 µM, first compound 0.00316 µM", "result": 91.8, "unit": "%"}, {"measurement": "viability, T/C", "setting": "second compound 0.0316 µM, first compound 0.01 µM", "result": 81.8, "unit": "%"}, {"measurement": "viability, T/C", "setting": "second compound 0.0316 µM, first compound 0.0316 µM", "result": 80.2, "unit": "%"}, {"measurement": "viability, T/C", "setting": "second compound 0.0316 µM, first compound 0.1 µM", "result": 80.4, "unit": "%"}, {"measurement": "viability, T/C", "setting": "second compound 0.1 µM, first compound 0.000316 µM", "result": 84.8, "unit": "%"}, {"measurement": "viability, T/C", "setting": "second compound 0.1 µM, first compound 0.001 µM", "result": 91, "unit": "%"}, {"measurement": "viability, T/C", "setting": "second compound 0.1 µM, first compound 0.00316 µM", "result": 85.5, "unit": "%"}, {"measurement": "viability, T/C", "setting": "second compound 0.1 µM, first compound 0.01 µM", "result": 81.4, "unit": "%"}, {"measurement": "viability, T/C", "setting": "second compound 0.1 µM, first compound 0.0316 µM", "result": 82.9, "unit": "%"}, {"measurement": "viability, T/C", "setting": "second compound 0.1 µM, first compound 0.1 µM", "result": 89.7, "unit": "%"}, {"measurement": "viability, T/C", "setting": "second compound 0.316 µM, first compound 0.000316 µM", "result": 87.6, "unit": "%"}, {"measurement": "viability, T/C", "setting": "second compound 0.316 µM, first compound 0.001 µM", "result": 99.3, "unit": "%"}, {"measurement": "viability, T/C", "setting": "second compound 0.316 µM, first compound 0.00316 µM", "result": 82, "unit": "%"}, {"measurement": "viability, T/C", "setting": "second compound 0.316 µM, first compound 0.01 µM", "result": 80.8, "unit": "%"}, {"measurement": "viability, T/C", "setting": "second compound 0.316 µM, first compound 0.0316 µM", "result": 88.1, "unit": "%"}, {"measurement": "viability, T/C", "setting": "second compound 0.316 µM, first compound 0.1 µM", "result": 105, "unit": "%"}, {"measurement": "viability, T/C", "setting": "second compound 1 µM, first compound 0.000316 µM", "result": 97.2, "unit": "%"}, {"measurement": "viability, T/C", "setting": "second compound 1 µM, first compound 0.001 µM", "result": 88.5, "unit": "%"}, {"measurement": "viability, T/C", "setting": "second compound 1 µM, first compound 0.00316 µM", "result": 89.7, "unit": "%"}, {"measurement": "viability, T/C", "setting": "second compound 1 µM, first compound 0.01 µM", "result": 88, "unit": "%"}, {"measurement": "viability, T/C", "setting": "second compound 1 µM, first compound 0.0316 µM", "result": 84, "unit": "%"}, {"measurement": "viability, T/C", "setting": "second compound 1 µM, first compound 0.1 µM", "result": 90.2, "unit": "%"}]}]}
